Patent US6841368B1, “Enzymatic production of difructose dianhydride IV from sucrose and relevant enzymes and genes coding for them” (priority 1999, dated 2005)
Read-outs that look alike come from different tables or passages of the source.

Key:
[1] = system: levan fructotransferase from A. ureafaciens K2032; assay: Effect of additives on the activity of levan fructotransferase; type: biochemical
Procedure: (§1) The purified enzyme was 51,000 in molecular weight as measured by SDS-PAGE while being measured to have a molecular weight of 96,000 by gel filtration chromatography. Thus, it was identified as being a dimer in aqueous conditions. […] Also, it was of optimal activity at 55° C. […] Whereas being inhibited by Mn^2+, Fe^2+ and Hg^2+, the activity of the enzyme was enhanced by […] and Ca^2+.

[2] = type: biochemical, A. ureafaciens K2032
Procedure: A. ureafaciens K2032 was inoculated in a selective broth containing levan as a major carbon source and cultured at 30° C. for 72 hours in an incubator. Investigation into the growth and levan fructotransferase activity of the bacteria provided the knowledge that the largest enzyme activity is obtained after 10 hours of the incubation. From the culture incubated for 10 hours, the enzyme was purified (FIG. 5). In this regard, the purification was achieved by successively using acetone precipitation, ion exchange chromatography (DEAE 650-M and Mono Q), and gel filtration chromatography, resulting in producing levan fructotransferase with a specific activity of 2269 U/mg protein at an amount of 1.1 mg at a yield of 29.8% (Table 8).
as §1
The newly isolated levan fructotransferase structural gene is composed of 1566 bp which corresponds to 521 aa. The gene of the present invention has a signal sequence consisting of 99 bp (corresponding to 33 aa) at its N-terminus and therefore, the putative completed protein may be about 56 kDa in molecular weight. […] This levan fructotransferase gene is longer by 15 bases (5 amino acids) than is the levan fructotransferase gene derived from A. nicotinovorans GS-9. These two genes are 81% in the homology of amino acid sequence (76% in the homology of base sequence). Consequently, the levan fructotransferase gene of A. ureafaciens K2032 was identified as being new and its base sequence was registered in the GenBank, U.S.A. (Accession No. AF181254).

[3] = additive concentration 1 mM, control = 100
[4] = additive concentration 10 mM, control = 100

**Q.** For `[Ca+2].[Cl-].[Cl-]` [CaCl2], which Relative activity [1, 3] is on record?
**A.** The Relative activity was 156%.

**Q.** And the Relative activity [1, 4]?
**A.** Its Relative activity is 181%.

**Q.** What about the “Effect on the activity of the enzyme (in words)” value (from here on “Effect on the activity”) ([1]; metal ions) of the same molecule?
**A.** The value was “enhanced”.

**Q.** For `O=C(O)CN(CCN(CC(=O)O)CC(=O)O)CC(=O)O` [EDTA, reference compound], which Relative activity [1, 3] is on record?
**A.** The Relative activity was 95%.

**Q.** And the Relative activity [1, 4]?
**A.** Its Relative activity is 94%.

**Q.** With `[Cl][Fe][Cl]` [FeCl2] as the molecule, how does the Relative activity [1, 3] read?
**A.** The Relative activity was 4%.

**Q.** And the “Effect on the activity” value ([1]; metal ions)?
**A.** Its value is “inhibited”.

**Q.** For `[Cl][Hg][Cl]` [HgCl2], which Relative activity [1, 3] is on record?
**A.** Its Relative activity is 0%.

**Q.** And the “Effect on the activity” value ([1]; metal ions)?
**A.** Its value is “inhibited”.

**Q.** For `[Cl-].[K+]` [KCl], which Relative activity [1, 3] is on record?
**A.** Its Relative activity is 89%.

**Q.** With `[Cl-].[Li+]` [LiCl] as the molecule, how does the Relative activity [1, 3] read?
**A.** Its Relative activity is 92%.

**Q.** With `[Cl-].[Cl-].[Mg+2]` [MgCl2] as the molecule, how does the Relative activity [1, 3] read?
**A.** The Relative activity was 63%.

**Q.** Which results are given for `[Cl][Mn][Cl]` [MnCl2]?
**A.** Relative activity [1, 3]: 9%; Effect on the activity of the enzyme (in words) ([1]; metal ions): inhibited

**Q.** For `Cl.N` [NH4Cl], which Relative activity [1, 3] is on record?
**A.** The Relative activity was 46%.

**Q.** Which “Effect on the activity” value [1] does the source give for `[Cl-].[Na+]` [NaCl] here?
**A.** Its value is “enhanced”.

**Q.** What about the Relative activity [1] of the same molecule?
**A.** Its Relative activity is 125, 142%.

**Q.** Which Relative activity [1, 3] does the source give for `[Cl][Ni][Cl]` [NiCl] here?
**A.** The Relative activity was 74%.

**Q.** With `CCCCCCCCCCCCOS(=O)(=O)[O-].[Na+]` [SDS, sodium dodecylsulfate, reference compound] as the molecule, how does the Relative activity [1, 3] read?
**A.** Its Relative activity is 101%.

**Q.** What about the Relative activity [1, 4] of the same molecule?
**A.** Its Relative activity is 32%.

**Q.** For `[Cl-].[Cl-].[Zn+2]` [ZnCl2], which Relative activity [1, 3] is on record?
**A.** Its Relative activity is 23%.

B1: levan fructotransferase: enzyme purified from A. ureafaciens K2032 that produces DFA IV from levan; SEQ ID NO: 1 (protein)
chain: MTPAISRRAVLQGAGAGALALIFGGAVPPAARASAPGSLRAVYHMTPPSGWLCDPQRPVTTHGAYQLYYLHSDQNNGPGGWDHASTTDGVAFTHHGTVMPLRPDFPVWSGSAVVGTANTAGFGAGAVVALATQPTDGVRKYQEQYLYWSTDGGFTFTALPDPVIVNTDGRAATTPAEIENAEWFRDPKIHWDTARGEWVCVIGRLRYAAFYTSPNLRDWTLRRNFDYPNHALGGIECPDLFEITADDGTRHWVLAASMDAYGIGLPMTYAYWTGTWDGEQFHADDLTPQWLDWGWDWYAAVTWPSIDAPETKRLAIAWMNNWKYAARDVPTDASDGYNGQNSIVRELRLARQPGGWYTLLSTPVAALTNYVTATTTLPDRTVDGSAVLPWNGRAYEIELDIAWDTATNVGISVGRSPDGTRHTNIGKYGADLYVDRGPSDLAGYSLAPYSRAAAPIDPGARSVHLRILVDTQSVEVFVNAGHTVLSQQVHFAEGDTGISLYTDGGPAHFTGIVVREIGQAI
modifications: Arthrobacter ureafaciens K2032
**Q.** What does the source list for B1?
**A.** pH range in which the enzyme maintains its stability [2]: 4-10.5; Specific activity ([2]; after acetone precipitation, ion exchange and gel filtration chromatography): 2269 U/mg protein; Remnant activity ([2]; after standing at 50° C. for 30 min): ≥ 90%; Isoelectric point ([2]; levan fructotransferase encoded by lftA): 5.15 pH
